IC50 data for 32 compounds are collected here from US20090048269A1 (AstraZeneca AB, priority 2007, published 2009).

Molecules are shown by their SMILES.

For the first test, the target named is T1, human ALK5 (Homo sapiens, UniProt P36897).
T1 sequence (P36897 162-503): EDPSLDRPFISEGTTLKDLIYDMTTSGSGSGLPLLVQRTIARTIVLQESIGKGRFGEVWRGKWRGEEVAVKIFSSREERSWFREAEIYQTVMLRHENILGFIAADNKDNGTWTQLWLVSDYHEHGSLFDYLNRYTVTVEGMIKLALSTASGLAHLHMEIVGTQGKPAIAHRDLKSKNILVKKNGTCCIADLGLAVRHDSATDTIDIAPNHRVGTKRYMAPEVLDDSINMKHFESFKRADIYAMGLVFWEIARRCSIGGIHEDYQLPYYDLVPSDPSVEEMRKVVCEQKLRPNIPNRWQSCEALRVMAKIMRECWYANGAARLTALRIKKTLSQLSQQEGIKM
In words: ALK5 Enzyme Assay 1. The arrangement: 6His tagged ALK5 protein (amino acids 162-503) expressed in insect cells; 6His; made in house; host or cells: insect cells. Conditions: read-out: EAA: activity (μM) using Enzyme Assay 1. It counts as biochemical. The procedure: This assay measures the ability of a compound to bind to and inhibit the activity of ALK5 protein in vitro. […] Assay measurements were performed in assay buffer comprising 60 mM HEPES pH 7.4, 3 mM MgCl2, 3 mM MnCl2, 3 μM Na orthovanadate, 1.2 mM DTT and 0.05% PEG2000. […] Reactions were performed in the presence of 200 μg/mL casein (Sigma-Aldrich C4765-10ML), 200 ng/mL ALK5, 0.5 μM ATP (Sigma-Aldrich A7699), 1 μCi/mL γ-33P ATP. Following addition of casein, ATP and compound, reactions were initiated by adding ALK5 enzyme and reactions run for 90 minutes. After incubation reactions were terminated by addition of 20 μL per well of 50% orthophosphoric acid. 20 minutes after addition of 70% v/v TCA, precipitated protein was transferred to GF/C 96 well plates using a Tomtec harvester with 1.5% orthophosphoric acid. […] All reactions were performed under linear kinetics.
`Cc1cc(Oc2ccnc(Nc3ccccc3Cl)c2)c(-c2ccccn2)nc1C` [Example 194B, N-(2-Chlorophenyl)-4-(5,6-dimethyl-2-pyridin-2-ylpyridin-3-yl)-oxypyridin-2-amine]: the IC50 was found to be 2.8 µM.

For `Cc1cc(Oc2ccnc(Nc3ccn(C)n3)c2)c(-c2ccccn2)nc1C` [Example 39, 4-(5,6-Dimethyl-2-pyridin-2-yl-pyridin-3-yl)oxy-N-(1-methylpyrazol-3-yl)-pyridin-2-amine], the IC50 was 0.0935 µM.

With `COc1cc(Nc2cc(Oc3ccc(C)nc3-c3ccnc4ccccc34)ccn2)cc(OC)c1OC` [Example 170, 4-[6-Methyl-2-(quinolin-4-yl)pyridin-3-yloxy]-N-(3,4,5-trimethoxyphenyl)pyridin-2-amine], the IC50 is 0.615 µM.

Consider `COc1ccc(NC(C)=O)cc1Nc1cc(Oc2cc(C)c(C)nc2-c2ccccn2)ccn1` [Example 73, N-(3-{[4-(5,6-Dimethyl-2-pyridin-2-ylpyridin-3-yl)oxypyridin-2-yl]-amino}-4-methoxyphenyl)acetamide], for which the IC50 is 0.454 µM.

Regarding `Cc1cc(Oc2ccnc(Nc3ccccc3)c2)c(-c2ccccn2)nc1C` [Example 24, 4-(5,6-Dimethyl-2-pyridin-2-yl-pyridin-3-yl)oxy-N-phenyl-pyridin-2-amine], the IC50 worked out at 0.00417 µM.

Regarding `Cc1ccc(Oc2ccnc(Nc3ccc(C(=O)O)cc3)c2)c(C)n1` [Example 205, Lithium 4-{[4-(2,6-dimethylpyridin-3-yl)oxypyridin-2-yl]-amino}benzoate], the IC50 is 0.15 µM.

A further test has as its target T1, human ALK5. As to the kind of experiment: ALK5 Enzyme Assay 2 (fluorescence polarisation probe displacement). It counts as binding. Also on record: 6His tagged human ALK5 (residues162-503) was grown and purified from insect cells; 6His; made in house; host or cells: insect cells. Particulars: read-out: EAA2: activity (μM) using Enzyme Assay 2. Summed up:
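Recombinant ALK5 (3 μg/mL) incubated with test compound in 50 mM HEPES pH7.4, 10 mM MgCl2, 1 mM DTT, 0.01% CHAPS. Displacement of a fluorescent quinazoline-based ALK5 probe (50 nM final) in presence of 1 μM ATP read by fluorescence polarisation.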
In general terms: Fluorescence polarisation rises when a labelled molecule tumbles more slowly, as on binding a larger partner.
As for `Cc1ccc(Oc2ccnc(Nc3ccc(C(=O)NCCN4CCCCC4)cc3)c2)c(C)n1` [Example 217, 4-{[4-(2,6-Dimethylpyridin-3-yl)oxypyridin-2-yl]amino}-N-(2-piperidin-1-ylethyl)benzamide], the IC50 was 0.0121 µM.

Take `Cc1ccc(Oc2ccnc(Nc3cccc(CN4CCN(S(C)(=O)=O)CC4)c3)c2)c(C)n1` [Example 175, 4-(2,6-Dimethylpyridin-3-yl)oxy-N-{3-[(4-methylsulfonyl-piperazin-1-yl)methyl]phenyl}pyridin-2-amine]: the IC50 is 0.00611 µM.

As to `Cc1ccc(Oc2ccnc(Nc3cccc(C(=O)NCc4ncc[nH]4)c3)c2)c(C)n1` [Example 63, 3-{[4-(2,6-Dimethylpyridin-3-yl)oxypyridin-2-yl]amino}-N-(1H-imidazol-2-ylmethyl)benzamide], the IC50 was 0.00823 µM.

Turning to `Cc1ccc(Oc2ccnc(Nc3ccc(C(=O)NCCNS(=O)(=O)N(C)C)cc3)c2)c(C)n1` [Example 142, 4-{[4-(2,6-Dimethylpyridin-3-yl)oxypyridin-2-yl]amino}-N-[2-(dimethylsulfamoylamino)ethyl]benzamide], the IC50 is 0.0506 µM.

Turning to `Cc1ccc(Oc2ccnc(Nc3cccc(C(=O)N4CCC(S(C)(=O)=O)C4)c3)c2)c(C)n1` (centres unmarked) [Example 66, (3-{[4-(2,6-Dimethylpyridin-3-yl)oxypyridin-2-yl]amino}phenyl)-(3-methylsulfonylpyrrolidin-1-yl)methanone], the IC50 was found to be 0.0185 µM.

For `Cc1ccc(Oc2ccnc(Nc3ccc(C#N)cc3)c2)c(C)n1` [Example 89, 4-{[4-(2,6-Dimethylpyridin-3-yl)oxypyridin-2-yl]amino}-benzonitrile], the IC50 came to 0.346 µM.

Consider `Cc1ccc(Oc2ccnc(Nc3cccc(C(=O)N(C)C)c3)c2)c(C)n1` [Example 62, 3-{[4-(2,6-Dimethylpyridin-3-yl)oxypyridin-2-yl]amino}-N,N-dimethylbenzamide], for which the IC50 worked out at 0.0535 µM.

Regarding `COc1ccc(Nc2cc(Oc3ccc(C)nc3C)ccn2)cc1` [Example 90, 4-(2,6-Dimethylpyridin-3-yl)oxy-N-(4-methoxyphenyl)pyridin-2-amine], the IC50 came out at 0.135 µM.

Turning to `CCN(CC)S(=O)(=O)c1ccc(Nc2cc(Oc3ccc(C)nc3C)ccn2)cc1` [Example 116, 4-{[4-(2,6-Dimethylpyridin-3-yl)oxypyridin-2-yl]amino}-N,N-diethylbenzenesulfonamide], the IC50 was found to be 1.42 µM.

As for `Cc1ccc(Oc2ccnc(Nc3ccc(C(=O)NCCN4CCS(=O)(=O)CC4)cc3)c2)c(C)n1` [Example 215, 4-{[4-(2,6-Dimethylpyridin-3-yl)oxypyridin-2-yl]amino}-N-[2-(1,1-dioxo-1,4-thiazinan-4-yl)ethyl]benzamide], the IC50 turned out to be 0.0362 µM.

For the compound `Cc1ccc(Oc2ccnc(Nc3cccc(C(=O)N(C4CC4)C4CCN(C)CC4)c3)c2)c(C)n1` [Example 59, N-Cyclopropyl-3-{[4-(2,6-dimethylpyridin-3-yl)oxypyridin-2-yl]-amino}-N-(1-methylpiperidin-4-yl)benzamide], the IC50 turned out to be 0.0214 µM.

Consider `CC(=O)Nc1cc(Nc2cc(Oc3ccc(C)nc3C)ccn2)ccc1C` [Example 127, N-(5-{[4-(2,6-Dimethylpyridin-3-yl)oxypyridin-2-yl]amino}-2-methylphenyl)acetamide], for which the IC50 stood at 0.0145 µM.

Turning to `CNC(=O)CN1CCN(Cc2cccc(Nc3cc(Oc4ccc(C)nc4C)ccn3)c2)CC1` [Example 191], the IC50 is 0.0213 µM.

Turning to `Cc1ccc(Oc2ccnc(Nc3cccc(CN4CCNCC4)c3)c2)c(C)n1` [Example 176, 4-(2,6-Dimethylpyridin-3-yl)oxy-N-[3-(Piperazin-1-ylmethyl)-phenyl]pyridin-2-amine], the IC50 was determined as 0.00829 µM.

`Cc1cc(Oc2ccnc(Nc3ccc(CC#N)cc3)c2)c(-c2ccccn2)nc1C` [Example 74, 2-(4-{[4-(5,6-Dimethyl-2-pyridin-2-ylpyridin-3-yl)oxypyridin-2-yl]-amino}phenyl)acetonitrile]: the IC50 was determined as 0.00488 µM.

In the case of `Cc1ccc(Oc2ccnc(Nc3ccc(S(=O)(=O)NCCn4ccnc4)cc3)c2)c(C)n1` [Example 135, 4-{[4-(2,6-Dimethylpyridin-3-yl)oxypyridin-2-yl]amino}-N-(2-imidazol-1-ylethyl)benzenesulfonamide], the IC50 is 0.12 µM.

With `Cc1ccc(Oc2ccnc(Nc3ccccn3)c2)c(-c2ccccn2)n1` [Example 145, 4-(6-Methyl-2-pyridin-2-ylpyridin-3-yl)oxy-N-pyridin-2-yl-pyridin-2-amine], the IC50 was found to be 0.00825 µM.

`Cc1ccc(Oc2ccnc(Nc3ccccn3)c2)c(-c2ccco2)n1` [Example 161, 4-[2-(Furan-2-yl)-6-methylpyridin-3-yl]oxy-N-pyridin-2-yl-pyridin-2-amine]: the IC50 worked out at 0.00855 µM.

Consider `Cc1ccc(Oc2ccnc(Nc3ccccn3)c2)c(C)n1` [Example 153, 4-(2,6-Dimethylpyridin-3-yl)oxy-N-pyridin-2-ylpyridin-2-amine], for which the IC50 is 0.0238 µM.

As to `COc1ccc(NC(=O)N2CCN(Cc3cccc(Nc4cc(Oc5ccc(C)nc5C)ccn4)c3)CC2)cc1` [Example 179, 4-[(3-{[4-(2,6-Dimethylpyridin-3-yl)oxypyridin-2-yl]-amino}phenyl)methyl]-N-(4-methoxyphenyl)piperazine-1-carboxamide], the IC50 was 0.0233 µM.

For `Cc1ccc(Oc2ccnc(Nc3cccc(C(=O)NCc4cnccn4)c3)c2)c(C)n1` [Example 64, 3-{[4-(2,6-Dimethylpyridin-3-yl)oxypyridin-2-yl]amino}-N-(pyrazin-2-ylmethyl)benzamide], the IC50 turned out to be 0.0415 µM.

`Cc1ccc(Oc2ccnc(Nc3cccc(C(=O)O)c3)c2)c(C)n1` [Example 210, Sodium 3-{[4-(2,6-dimethylpyridin-3-yl)oxypyridin-2-yl]amino}benzoate]: the IC50 turned out to be 0.0392 µM.

Regarding `Cc1ccc(Oc2ccnc(Nc3ccc(CO)cc3)c2)c(-c2ccc(F)cc2)n1` [Example 158, [4-({4-[2-(4-Fluorophenyl)-6-methylpyridin-3-yl]oxypyridin-2-yl}-amino)phenyl]methanol], the IC50 is 0.0315 µM.

For `Cc1ccc(Oc2ccnc(Nc3ccc(C(N)=O)cc3)c2)c(C)n1` [Example 92, 4-{[4-(2,6-Dimethylpyridin-3-yl)oxypyridin-2-yl]amino}benzamide], the IC50 was 0.0694 µM.

For `COc1ccc(-c2nc(C)ccc2Oc2ccnc(Nc3cc(OC)c(OC)c(OC)c3)c2)cn1` [Example 169, 4-(6′-Methoxy-6-methyl-2,3′-bipyridin-3-yloxy)-N-(3,4,5-trimethoxyphenyl)pyridin-2-amine], the IC50 turned out to be 0.0751 µM.

Turning to `CC(=O)Nc1ccc(Nc2cc(Oc3cc(C)c(C)nc3-c3ccccn3)ccn2)cc1` [Example 86, N-(4-{[4-(5,6-Dimethyl-2-pyridin-2-ylpyridin-3-yl)oxypyridin-2-yl]-amino}phenyl)acetamide], the IC50 stood at 0.00842 µM.
